{"source": "paper PMC4168215", "about": "“Perampanel Inhibition of AMPA Receptor Currents in Cultured Hippocampal Neurons” (PLoS ONE, 2014)", "key": {"AMPA receptors": {"tested_on": "AMPA receptors", "details": "rat forebrain membranes; earlier radioligand binding studies; cited from earlier work"}, "AMPA receptor [1]": {"tested_on": "AMPA receptor", "experiment": "Whole-cell voltage-clamp recording of kainate-evoked (AMPA receptor) currents in cultured hippocampal neurons", "type": "cell-based, rat", "details": "for percent inhibition of kainate-evoked current: sample current", "description": "(§1) Primary hippocampal neuronal cultures were prepared as previously described. In brief, timed pregnant rats Sprague-Dawley rats (Charles River Laboratories International, Wilmington, MA, USA) were anesthetized with isoflurane. E18 embryos were obtained and the hippocampi were dissected and treated in Hank’s balanced salt solution (HBSS; Invitrogen, Carlsbad, CA, USA) with trypsin (0.03%, Sigma-Aldrich, St. Louis, MO) for 20 min at 37°C. After inactivation of trypsin with neuronal medium (Neurobasal medium; Invitrogen, Life Technologies, Grand Island, NY, USA) supplemented with NS21, 0.5 mM glutamine, 10 mM HEPES) plus 5% horse serum (HS; Invitrogen), the tissue was washed twice with HBSS, and triturated with a fire-polished Pasteur pipette. After non-dissociated pieces of tissue settled, cells in the supernatant were collected by centrifugation (1100 rpm at 200×g for 3.5 min), re-suspended in neuronal medium plus 5% horse serum, counted, and plated on coverslips (Warner Instruments, Hamden, CT, USA) coated with 0.1% (w/v) poly-L-lysine (Peptides International, Louisville, KY, USA). The cell density was 3×10^4 cm^−2 in plating medium. After 4 h, the medium was replaced with serum-free neuronal medium. Cells were grown in a humidified environment of 95% air/5% CO2 at 37°C. One third of medium was changed after 5 days in vitro (DIV) and weekly thereafter.\n(§2) Whole-cell voltage clamp experiments were performed 7–25 days after plating. […]. The pipette solution contained 145 CsCl, 0.1 mM CaCl2, 2 mM MgCl2, 1 mM EGTA, and 5 mM HEPES. For NMDA-mediated currents, recordings were made in a bath solution containing 135 mM NaCl, 5 mM KCl, 0.2 mM CaCl2, 10 mM HEPES, 1 µM TTX, 10 µM bicuculline, 1 µM strychnine, 10 µM NBQX, 3 µM glycine. The pipette solution contained 145 CsCl, 0.1 mM CaCl2, 1 mM EGTA, and 5 mM HEPES.\n(§3) Recordings were made with an Axopatch 200B patch-clamp amplifier (Axon Instruments, Foster City, CA, USA). Whole-cell currents were filtered at 2 kHz and digitized at 10 kHz. All neurons were voltage-clamped at −60 mV. The following drugs dissolved in bath solution were applied using a fast perfusion system (VC^3-8XP, ALA Scientific Instrument, NY, USA): kainate (3, 10, 100 µM), AMPA (10, 30, 100 µM), NMDA (10, 100 µM), and perampanel (0.01–30 µM). All were from Sigma-Aldrich except perampanel, which was from Eisai Inc. Solution reservoirs contained the drugs separately or the combination of an agonist (kainate, AMPA or NMDA) plus perampanel. Each solution reservoir was connected to a pinch valve of the 8-channel VC^3-8XP perfusion system, which fed solution to an 8-to-1 mini-manifold (MP-8, Warner Instruments, Hamden, CT) that has a dead-volume of 3.5 µl when switching between solutions. Only one perfusion line was open at a time. The opening speed was 15–20 ms. The command for switching among perfusion lines was generated by the pClamp software and delivered to the control box of the perfusion system via a TTL connection."}, "AMPA receptor [2]": {"target": "AMPA receptor", "details": "CA1 area, rat hippocampal slices; read-out: IC50, inhibition of AMPA receptor component of the field response; cited from earlier work"}, "NMDA receptor [3]": {"tested_on": "NMDA receptor", "details": "30 µM; studies to date; cited from earlier work"}, "kainate receptor": {"tested_on": "kainate receptor", "details": "CA1 area, rat hippocampal slices; cited from earlier work"}, "AMPA receptor [4]": {"tested_on": "AMPA receptor", "experiment": "Whole-cell voltage-clamp recording of AMPA-evoked currents in cultured hippocampal neurons", "type": "cell-based, rat", "description": "as §1, §2, §3"}, "NMDA receptor [5]": {"tested_on": "NMDA receptor", "details": "CA1 area, rat hippocampal slices; cited from earlier work"}, "AMPA receptor [6]": {"target": "AMPA receptor", "set-up": "method as in PMID 21635236", "details": "cultured rat cortical neurons; read-out: IC50, inhibition of AMPA-induced Ca2+ influx; cited from earlier work"}, "NMDA receptor [7]": {"tested_on": "NMDA receptor", "experiment": "Whole-cell voltage-clamp recording of NMDA-evoked currents in cultured hippocampal neurons", "type": "cell-based, rat", "description": "as §1, §2\nRecordings were made with an Axopatch 200B patch-clamp amplifier (Axon Instruments, Foster City, CA, USA). Whole-cell currents were filtered at 2 kHz and digitized at 10 kHz. All neurons were voltage-clamped at −60 mV. […]"}, "AMPA receptor [8]": {"tested_on": "AMPA receptor", "details": "cited from earlier work"}, "[9]": {"details": "1 µM perampanel, 10, 30 and 100 µM AMPA"}, "[10]": {"details": "3 µM perampanel and 100 µM AMPA applied simultaneously"}, "[11]": {"details": "30 µM perampanel preapplied 5 s then coapplied, 10 and 100 µM NMDA"}}, "note": "Several values for one entry are separate records, joined by “and”; a condition that tells them apart may be missing. Equal entries are not always repeated. Where two headings read alike, the source gives them in different places."}
{"smiles": "CCN(CC)Cc1cccc(/C=C/c2nc3ccc(F)cc3c(=O)n2-c2ccccc2Cl)n1", "note": "[CP-465,022]", "values": [{"measurement": "displacement of [3H]perampanel binding", "setting": "AMPA receptors", "result": "displaced"}]}
{"smiles": "N#Cc1ccccc1-c1cc(-c2ccccn2)cn(-c2ccccc2)c1=O", "note": "[Perampanel, 2-(2-oxo-1-phenyl-5-pyridin-2-yl-1,2-dihydropyridin-3-yl)benzonitrile]", "values": [{"measurement": "percent inhibition of kainate-evoked current", "setting": "AMPA receptor [1]; 0.1 µM perampanel, 100 µM kainate", "result": 20, "unit": "%"}, {"measurement": "percent inhibition of kainate-evoked current", "setting": "AMPA receptor [1]; 0.3 µM perampanel, 100 µM kainate", "result": 41, "unit": "%"}, {"measurement": "percent inhibition of kainate-evoked current", "setting": "AMPA receptor [1]; 1 µM perampanel, 100 µM kainate", "result": 55, "unit": "%"}, {"measurement": "IC50", "setting": "AMPA receptor [1]; 3 µM kainate, holding −60 mV, perampanel preapplied 5 s then coapplied, read-out: Kainate Response IC50", "result": 580, "unit": "nM"}, {"measurement": "time constant (τ) of development of block", "setting": "AMPA receptor [1]; 3 µM perampanel started 5 s after onset of 100 µM kainate", "result": "1.2 ± 0.1", "unit": "s"}, {"measurement": "reduction of the kainate-induced current", "setting": "AMPA receptor [1]; 3 µM perampanel started 5 s before kainate (100 µM), one neuron", "result": "~73", "unit": "%"}, {"measurement": "time constant (τ) of recovery from block", "setting": "AMPA receptor [1]; 3 µM perampanel, 100 µM kainate, after termination of perampanel", "result": "3.3 ± 1.5", "unit": "s"}, {"measurement": "percent inhibition of kainate-evoked current", "setting": "AMPA receptor [1]; 3 µM perampanel, 100 µM kainate", "result": 80, "unit": "%"}, {"measurement": "IC50", "setting": "AMPA receptor [1]; 10 µM kainate, holding −60 mV, perampanel preapplied 5 s then coapplied, read-out: Kainate Response IC50", "result": 510, "unit": "nM"}, {"measurement": "IC50", "setting": "AMPA receptor [1]; 100 µM kainate, holding −60 mV, perampanel preapplied 5 s then coapplied, read-out: Kainate Response IC50", "result": 580, "unit": "nM"}, {"measurement": "IC50", "setting": "AMPA receptor [1]; overall value, similar at all kainate concentrations (3–100 µM), read-out: IC50, block of non-desensitizing kainate-evoked currents", "result": 560, "unit": "nM"}, {"measurement": "IC50", "setting": "AMPA receptor [2]", "result": 230, "unit": "nM"}, {"measurement": "inhibition of NMDA responses", "setting": "NMDA receptor [3]", "result": "only minimally inhibits"}, {"measurement": "effect on kainate receptor component of the field response", "setting": "kainate receptor", "result": "without affecting"}, {"measurement": "effect on decay time constant of AMPA-evoked currents", "setting": "AMPA receptor [4]; [9]", "result": "did not alter"}, {"measurement": "effect on peak to late ratio of AMPA-evoked currents", "setting": "AMPA receptor [4]; [9]", "result": "not statistically different from control"}, {"measurement": "effect on rise time constant of AMPA-evoked currents", "setting": "AMPA receptor [4]; [9]", "result": "did not alter"}, {"measurement": "reduction of peak AMPA response", "setting": "AMPA receptor [4]; [10]", "result": 17, "unit": "%"}, {"measurement": "time to full block", "setting": "AMPA receptor [4]; [10]", "result": "≤ 5", "unit": "s"}, {"measurement": "reduction in the peak and late AMPA responses", "setting": "AMPA receptor [4]; 3 µM perampanel started 5 s before 100 µM AMPA", "result": "~60", "unit": "%"}, {"measurement": "time constant (τ) of inhibition of AMPA receptor currents", "setting": "AMPA receptor [4]; 3 µM perampanel, currents evoked by AMPA and kainate", "result": "~1", "unit": "s"}, {"measurement": "time over which block develops without preexposure", "setting": "AMPA receptor [4]; 3 µM perampanel, kainate- and AMPA-evoked currents (Fig. 3)", "result": "~3", "unit": "s"}, {"measurement": "IC50", "setting": "AMPA receptor [4]; 10 µM AMPA, holding −60 mV, perampanel preapplied 5 s then coapplied, read-out: AMPA Response IC50, Peak Current", "result": 400, "unit": "nM"}, {"measurement": "IC50", "setting": "AMPA receptor [4]; 10 µM AMPA, late current at end of 5 s AMPA perfusion, read-out: AMPA Response IC50, Late Current", "result": 400, "unit": "nM"}, {"measurement": "IC50", "setting": "AMPA receptor [4]; 30 µM AMPA, holding −60 mV, perampanel preapplied 5 s then coapplied, read-out: AMPA Response IC50, Peak Current", "result": 800, "unit": "nM"}, {"measurement": "IC50", "setting": "AMPA receptor [4]; 30 µM AMPA, late current at end of 5 s AMPA perfusion, read-out: AMPA Response IC50, Late Current", "result": 900, "unit": "nM"}, {"measurement": "Kd", "setting": "AMPA receptor [4]; 100 µM AMPA-evoked currents, read-out: kinetically determined binding affinity (KD = k–1/k1)", "result": 3900, "unit": "nM"}, {"measurement": "mean off rate determined from the τoff values", "setting": "AMPA receptor [4]; 100 µM AMPA, 1, 3 and 10 µM perampanel", "result": 0.68, "unit": "s⁻¹"}, {"measurement": "unbinding rate constant k–1 (rate of unblock, dissociation rate)", "setting": "AMPA receptor [4]; 100 µM AMPA, 1, 3 and 10 µM perampanel, intercept of kapp vs concentration", "result": 0.58, "unit": "s⁻¹"}, {"measurement": "binding rate constant k1 (rate of block, association rate)", "setting": "AMPA receptor [4]; 100 µM AMPA, 1, 3 and 10 µM perampanel, slope of kapp vs concentration", "result": "1.5×10^5 M^−1 s^−1 and 1.51±0.10×10^5 M^−1 s^−1"}, {"measurement": "IC50", "setting": "AMPA receptor [4]; 100 µM AMPA, holding −60 mV, perampanel preapplied 5 s then coapplied, read-out: AMPA Response IC50, Peak Current", "result": 900, "unit": "nM"}, {"measurement": "IC50", "setting": "AMPA receptor [4]; 100 µM AMPA, late current at end of 5 s AMPA perfusion, read-out: AMPA Response IC50, Late Current", "result": 1200, "unit": "nM"}, {"measurement": "effect on NMDA receptor component of the field response", "setting": "NMDA receptor [5]", "result": "without affecting"}, {"measurement": "IC50", "setting": "AMPA receptor [6]", "result": 93, "unit": "nM"}, {"measurement": "effect on mean amplitude of late NMDA-evoked current", "setting": "NMDA receptor [7]; [11]", "result": "failed to affect"}, {"measurement": "effect on mean amplitude of peak NMDA-evoked current", "setting": "NMDA receptor [7]; [11]", "result": "failed to affect"}, {"measurement": "effect on NMDA receptor currents", "setting": "NMDA receptor [7]; summary statement", "result": "did not affect"}]}
{"smiles": "CC1=NN=C(c2ccc(N)cc2)c2cc3c(cc2C1)OCO3", "note": "[GYKI 52466, 1-(4-amino-phenyl)-4-methyl-7,8-methyl-endioxyl-5H-2,3-benzodiaze pine]", "values": [{"measurement": "displacement of [3H]perampanel binding", "setting": "AMPA receptors", "result": "displaced"}, {"measurement": "inhibition of steady AMPA receptor current", "setting": "AMPA receptor [8]; 30 µM", "result": "~50", "unit": "%"}, {"measurement": "time in which block occurs", "setting": "AMPA receptor [8]; 30 µM", "result": "several hundred milliseconds"}, {"measurement": "association rate", "setting": "AMPA receptor [8]", "result": 160000, "unit": "M⁻¹ s⁻¹"}, {"measurement": "dissociation rate", "setting": "AMPA receptor [8]", "result": 3.2, "unit": "s⁻¹"}]}
